PubChem BioAssay (NCI)
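Five compound concentrations were applied to cells in 96-well plates for 48 hours; endpoints were derived by simple linear interpolation of the resulting dose-response curve. TGI is the concentration that stops growth completely.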

Assays:
Experiment in all cases: NCI tumour cell line growth inhibition, 48 h
786-0 renal = tested on: 786-0 renal
A498 renal = tested on: A498 renal
A549 NSCLC = tested on: A549 NSCLC
ACHN renal = tested on: ACHN renal
CAKI-1 renal = tested on: CAKI-1 renal
COLO 205 colon = tested on: COLO 205 colon
DLD-1 colon = tested on: DLD-1 colon
DMS 114 small cell lung = tested on: DMS 114 small cell lung
DMS 273 small cell lung = tested on: DMS 273 small cell lung
EKVX NSCLC = tested on: EKVX NSCLC
HCT-116 colon = tested on: HCT-116 colon
HCT-15 colon = tested on: HCT-15 colon
HL-60(TB) leukemia = tested on: HL-60(TB) leukemia
HOP-62 NSCLC = tested on: HOP-62 NSCLC
HOP-92 NSCLC = tested on: HOP-92 NSCLC
HT29 colon = tested on: HT29 colon
IGROV1 ovarian = tested on: IGROV1 ovarian
K-562 leukemia = tested on: K-562 leukemia
KM20L2 colon = tested on: KM20L2 colon
LOX IMVI melanoma = tested on: LOX IMVI melanoma
LXFL 529 NSCLC = tested on: LXFL 529 NSCLC
M14 melanoma = tested on: M14 melanoma
M19-MEL melanoma = tested on: M19-MEL melanoma
MALME-3M melanoma = tested on: MALME-3M melanoma
MOLT-4 leukemia = tested on: MOLT-4 leukemia
NCI-H226 lung = tested on: NCI-H226 lung
NCI-H23 lung = tested on: NCI-H23 lung
NCI-H460 lung = tested on: NCI-H460 lung
NCI-H522 lung = tested on: NCI-H522 lung
OVCAR-3 ovarian = tested on: OVCAR-3 ovarian
OVCAR-4 ovarian = tested on: OVCAR-4 ovarian
OVCAR-5 ovarian = tested on: OVCAR-5 ovarian
OVCAR-8 ovarian = tested on: OVCAR-8 ovarian
RPMI-8226 leukemia = tested on: RPMI-8226 leukemia
RXF 393 renal = tested on: RXF 393 renal
SF-268 CNS = tested on: SF-268 CNS
SF-295 CNS = tested on: SF-295 CNS
SF-539 CNS = tested on: SF-539 CNS
SK-MEL-2 melanoma = tested on: SK-MEL-2 melanoma
SK-MEL-28 melanoma = tested on: SK-MEL-28 melanoma
SK-MEL-5 melanoma = tested on: SK-MEL-5 melanoma
SK-OV-3 ovarian = tested on: SK-OV-3 ovarian
SN12C renal = tested on: SN12C renal
SNB-19 CNS = tested on: SNB-19 CNS
SNB-75 CNS = tested on: SNB-75 CNS
SNB-78 CNS = tested on: SNB-78 CNS
SW-620 colon = tested on: SW-620 colon
TK-10 renal = tested on: TK-10 renal
UACC-257 melanoma = tested on: UACC-257 melanoma
UACC-62 melanoma = tested on: UACC-62 melanoma
UO-31 renal = tested on: UO-31 renal
XF 498 CNS = tested on: XF 498 CNS
CCRF-CEM leukemia = tested on: CCRF-CEM leukemia
HCC-2998 colon = tested on: HCC-2998 colon
KM12 colon = tested on: KM12 colon
SR leukemia = tested on: SR leukemia
U251 CNS = tested on: U251 CNS
HOP-18 NSCLC = tested on: HOP-18 NSCLC

## CC(C)=CC(=O)Cc1nc2ccc([N+](=O)[O-])cc2[nH]c1=O
786-0 renal
  TGI: > 100 µM
A498 renal
  TGI: > 100 µM
A549 NSCLC
  TGI: > 100 µM
ACHN renal
  TGI: > 100 µM
CAKI-1 renal
  TGI: > 100 µM
COLO 205 colon
  TGI: > 100 µM
DLD-1 colon
  TGI: > 100 µM
DMS 114 small cell lung
  TGI: > 100 µM
DMS 273 small cell lung
  TGI: > 100 µM
EKVX NSCLC
  TGI: > 100 µM
HCT-116 colon
  TGI: > 100 µM
HCT-15 colon
  TGI: > 100 µM
HL-60(TB) leukemia
  TGI: > 100 µM
HOP-62 NSCLC
  TGI: > 100 µM
HOP-92 NSCLC
  TGI: > 100 µM
HT29 colon
  TGI: > 100 µM
IGROV1 ovarian
  TGI: > 100 µM
K-562 leukemia
  TGI: > 100 µM
KM20L2 colon
  TGI: > 100 µM
LOX IMVI melanoma
  TGI: > 100 µM
LXFL 529 NSCLC
  TGI: > 100 µM
M14 melanoma
  TGI: > 100 µM
M19-MEL melanoma
  TGI: > 100 µM
MALME-3M melanoma
  TGI: > 100 µM
MOLT-4 leukemia
  TGI: > 100 µM
NCI-H226 lung
  TGI: > 100 µM
NCI-H23 lung
  TGI: > 100 µM
NCI-H460 lung
  TGI: > 100 µM
NCI-H522 lung
  TGI: > 100 µM
OVCAR-3 ovarian
  TGI: > 100 µM
OVCAR-4 ovarian
  TGI: > 100 µM
OVCAR-5 ovarian
  TGI: > 100 µM
OVCAR-8 ovarian
  TGI: > 100 µM
RPMI-8226 leukemia
  TGI: > 100 µM
RXF 393 renal
  TGI: > 100 µM
SF-268 CNS
  TGI: > 100 µM
SF-295 CNS
  TGI: > 100 µM
SF-539 CNS
  TGI: > 100 µM
SK-MEL-2 melanoma
  TGI: > 100 µM
SK-MEL-28 melanoma
  TGI: > 100 µM
SK-MEL-5 melanoma
  TGI: > 100 µM
SK-OV-3 ovarian
  TGI: > 100 µM
SN12C renal
  TGI: > 100 µM
SNB-19 CNS
  TGI: > 100 µM
SNB-75 CNS
  TGI: > 100 µM
SNB-78 CNS
  TGI: > 100 µM
SW-620 colon
  TGI: > 100 µM
TK-10 renal
  TGI: > 100 µM
UACC-257 melanoma
  TGI: > 100 µM
UACC-62 melanoma
  TGI: > 100 µM
UO-31 renal
  TGI: > 100 µM
XF 498 CNS
  TGI: > 100 µM

## COC(=O)c1nn(C(=N)c2ccc(Cl)cc2)c2c1CCC2
786-0 renal
  TGI: > 100 µM
A498 renal
  TGI: > 100 µM
A549 NSCLC
  TGI: > 100 µM
ACHN renal
  TGI: > 100 µM
CAKI-1 renal
  TGI: > 100 µM
CCRF-CEM leukemia
  TGI: > 100 µM
COLO 205 colon
  TGI: > 100 µM
DLD-1 colon
  TGI: > 100 µM
DMS 114 small cell lung
  TGI: > 100 µM
DMS 273 small cell lung
  TGI: > 100 µM
HCC-2998 colon
  TGI: > 100 µM
HCT-116 colon
  TGI: > 100 µM
HCT-15 colon
  TGI: > 100 µM
HL-60(TB) leukemia
  TGI: > 100 µM
HOP-62 NSCLC
  TGI: > 100 µM
HOP-92 NSCLC
  TGI: > 100 µM
HT29 colon
  TGI: > 100 µM
IGROV1 ovarian
  TGI: > 100 µM
K-562 leukemia
  TGI: > 100 µM
KM12 colon
  TGI: > 100 µM
KM20L2 colon
  TGI: > 100 µM
LOX IMVI melanoma
  TGI: > 100 µM
LXFL 529 NSCLC
  TGI: > 100 µM
M14 melanoma
  TGI: > 100 µM
M19-MEL melanoma
  TGI: > 100 µM
MALME-3M melanoma
  TGI: > 100 µM
MOLT-4 leukemia
  TGI: > 100 µM
NCI-H226 lung
  TGI: > 100 µM
NCI-H23 lung
  TGI: > 100 µM
NCI-H460 lung
  TGI: > 100 µM
NCI-H522 lung
  TGI: > 100 µM
OVCAR-4 ovarian
  TGI: > 100 µM
OVCAR-5 ovarian
  TGI: > 100 µM
OVCAR-8 ovarian
  TGI: > 100 µM
RPMI-8226 leukemia
  TGI: > 100 µM
RXF 393 renal
  TGI: > 100 µM
SF-268 CNS
  TGI: > 100 µM
SF-295 CNS
  TGI: > 100 µM
SF-539 CNS
  TGI: > 100 µM
SK-MEL-2 melanoma
  TGI: > 100 µM
SK-MEL-28 melanoma
  TGI: > 100 µM
SK-MEL-5 melanoma
  TGI: > 100 µM
SK-OV-3 ovarian
  TGI: > 100 µM
SN12C renal
  TGI: > 100 µM
SNB-19 CNS
  TGI: > 100 µM
SNB-75 CNS
  TGI: > 100 µM
SNB-78 CNS
  TGI: > 100 µM
SR leukemia
  TGI: 92.3 µM
SW-620 colon
  TGI: > 100 µM
TK-10 renal
  TGI: > 100 µM
U251 CNS
  TGI: > 100 µM
UACC-257 melanoma
  TGI: > 100 µM
UACC-62 melanoma
  TGI: > 100 µM
UO-31 renal
  TGI: > 100 µM
XF 498 CNS
  TGI: > 100 µM

## O=C(CC/C(CC(=O)c1ccc(Br)cc1)=N\O)Nc1ccc(Cl)c(Cl)c1
786-0 renal
  TGI: > 100 µM
A498 renal
  TGI: > 100 µM
A549 NSCLC
  TGI: > 100 µM
ACHN renal
  TGI: > 100 µM
CCRF-CEM leukemia
  TGI: > 100 µM
COLO 205 colon
  TGI: > 100 µM
DLD-1 colon
  TGI: > 100 µM
DMS 114 small cell lung
  TGI: > 100 µM
DMS 273 small cell lung
  TGI: > 100 µM
EKVX NSCLC
  TGI: > 100 µM
HCC-2998 colon
  TGI: > 100 µM
HCT-116 colon
  TGI: > 100 µM
HCT-15 colon
  TGI: > 100 µM
HL-60(TB) leukemia
  TGI: > 100 µM
HOP-18 NSCLC
  TGI: > 100 µM
HOP-62 NSCLC
  TGI: > 100 µM
HOP-92 NSCLC
  TGI: > 100 µM
HT29 colon
  TGI: > 100 µM
IGROV1 ovarian
  TGI: > 100 µM
K-562 leukemia
  TGI: > 100 µM
KM12 colon
  TGI: > 100 µM
KM20L2 colon
  TGI: > 100 µM
LOX IMVI melanoma
  TGI: > 100 µM
LXFL 529 NSCLC
  TGI: > 100 µM
M14 melanoma
  TGI: > 100 µM
M19-MEL melanoma
  TGI: > 100 µM
MALME-3M melanoma
  TGI: > 100 µM
MOLT-4 leukemia
  TGI: > 100 µM
NCI-H226 lung
  TGI: > 100 µM
NCI-H23 lung
  TGI: > 100 µM
NCI-H460 lung
  TGI: > 100 µM
NCI-H522 lung
  TGI: 53.5 µM
OVCAR-3 ovarian
  TGI: > 100 µM
OVCAR-4 ovarian
  TGI: > 100 µM
OVCAR-5 ovarian
  TGI: > 100 µM
OVCAR-8 ovarian
  TGI: > 100 µM
RPMI-8226 leukemia
  TGI: > 100 µM
RXF 393 renal
  TGI: 90.7 µM
SF-268 CNS
  TGI: > 100 µM
SF-295 CNS
  TGI: > 100 µM
SF-539 CNS
  TGI: > 100 µM
SK-MEL-2 melanoma
  TGI: > 100 µM
SK-MEL-28 melanoma
  TGI: > 100 µM
SK-MEL-5 melanoma
  TGI: > 100 µM
SK-OV-3 ovarian
  TGI: > 100 µM
SN12C renal
  TGI: > 100 µM
SNB-75 CNS
  TGI: > 100 µM
SNB-78 CNS
  TGI: > 100 µM
SR leukemia
  TGI: > 100 µM
SW-620 colon
  TGI: > 100 µM
TK-10 renal
  TGI: > 100 µM
U251 CNS
  TGI: > 100 µM
UACC-257 melanoma
  TGI: > 100 µM
UACC-62 melanoma
  TGI: > 100 µM
UO-31 renal
  TGI: > 100 µM
